Measured values as given in ChEMBL document CHEMBL4342417, “Design, synthesis and evaluation of novel phenothiazine derivatives as inhibitors of breast cancer stem cells” (Eur J Med Chem, 2019).
Active and inactive are the calls of the source. The rule behind the calls is not given here.

Tests used:
SK-BR-3 = assay: Antiproliferative activity against human SKBR3 cells assessed as reduction in cell viability incubated for 2 days by MTT assay; format: functional, cell-based; details: SK-BR-3, 48 h
MDA-MB-231 [1] = assay: Antiproliferative activity against human MDA-MB-231 cells assessed as reduction in cell viability incubated for 2 days by MTT assay; format: functional, cell-based; details: MDA-MB-231, 48 h
MCF7 [2] = assay: Inhibition of colony formation in human MCF7 cells at 2.83 uM incubated for 14 days with replacement of medium for every 3 or 4 days by crystal violet staining based visual analysis relative to control; format: functional
SUM-159-PT [3] = assay: Inhibition of mammosphere formation in human SUM159 cells assessed as reduction in number of mammosphere at 2 uM incubated for 10 days by microscopic analysis; format: functional
KG-1a = assay: Antiproliferative activity against human KG1a cells assessed as reduction in cell viability incubated for 2 days by MTT assay; format: functional, cell-based; details: 48 h
MDA-MB-231 [4] = assay: Inhibition of cell migration of human MDA-MB-231 cells at 5.40 uM incubated for 48 hrs by scratch wound healing assay; format: functional, cell-based
SUM-159-PT [5] = assay: Antiproliferative activity against human SUM159 cells assessed as reduction in cell viability incubated for 2 days by MTT assay; format: functional, cell-based; details: 48 h
MCF7 [6] = assay: Antiproliferative activity against human MCF7 cells assessed as reduction in cell viability incubated for 2 days by MTT assay; format: functional, cell-based; details: MCF7, 48 h
MCF7 [7] = assay: Inhibition of colony formation in human MCF7 cells incubated for 14 days with replacement of medium for every 3 or 4 days by crystal violet staining based visual analysis; format: functional, cell-based
MDA-MB-231 [8] = assay: Downregulation of NF-kappaB-p65 expression in human MDA-MB-231 cells incubated for 48 hrs by Western blot analysis; format: functional, cell-based
SUM-159-PT [9] = assay: Potency index, ratio of IC50 of TFP to IC50 of compound for antiproliferative activity against human SUM159 cells assessed as reduction in cell viability incubated for 2 days by MTT assay; format: functional
MCF7 [10] = assay: Inhibition of colony formation in human MCF7 cells at 0.37 uM incubated for 14 days with replacement of medium for every 3 or 4 days by crystal violet staining based visual analysis relative to control; format: functional
SUM-159-PT [11] = assay: Inhibition of mammosphere formation in human SUM159 cells incubated for 10 days by microscopic analysis; format: functional, cell-based
[12] = molecular target: Transcription factor p65 (Homo sapiens) (UniProt Q04206); assay: Inhibition of LPS-stimulated NF-kappaB-p65 in human MDA-MB-231 cells incubated for 24 hrs by dual luciferase reporter gene assay; format: cell-based
MCF7 [13] = assay: Potency index, ratio of IC50 of TFP to IC50 of compound for antiproliferative activity against human MCF7 cells assessed as reduction in cell viability incubated for 2 days by MTT assay; format: functional
MCF7 [14] = assay: Inhibition of colony formation in human MCF7 cells at 0.74 uM incubated for 14 days with replacement of medium for every 3 or 4 days by crystal violet staining based visual analysis relative to control; format: functional
[15] = Toxicity in zebra fish assessed as survival rate at 250 uM observed for 24 hrs; set-up: species or system Danio rerio; details: zebrafish
SUM-159-PT [16] = assay: Inhibition of mammosphere formation in human SUM159 cells assessed as reduction in number of mammosphere at 0.5 uM incubated for 10 days by microscopic analysis; format: functional
MDA-MB-231 [17] = assay: Inhibition of cell migration of human MDA-MB-231 cells incubated for 48 hrs by scratch wound healing assay; format: functional, cell-based
SUM-159-PT [18] = assay: Inhibition of mammosphere formation in human SUM159 cells assessed as reduction in number of mammosphere at 1 uM incubated for 10 days by microscopic analysis; format: functional
MCF7 [19] = assay: Inhibition of colony formation in human MCF7 cells at 0.18 uM incubated for 14 days with replacement of medium for every 3 or 4 days by crystal violet staining based visual analysis relative to control; format: functional
MCF7 [20] = assay: Inhibition of colony formation in human MCF7 cells at 0.20 uM incubated for 14 days with replacement of medium for every 3 or 4 days by crystal violet staining based visual analysis relative to control; format: functional
MDA-MB-231 [21] = assay: Inhibition of cell migration of human MDA-MB-231 cells at 0.40 and 0.80 uM incubated for 48 hrs by scratch wound healing assay; format: functional, cell-based
[22] = molecular target: Transcription factor p65 (Homo sapiens) (UniProt Q04206); assay: Inhibition of LPS-stimulated NF-kappaB-p65 in human MDA-MB-231 cells at 0.40 and 0.80 uM incubated for 24 hrs by dual luciferase reporter gene assay; format: cell-based

Sequence of Transcription factor p65 (Homo sapiens) (Q04206 whole entry): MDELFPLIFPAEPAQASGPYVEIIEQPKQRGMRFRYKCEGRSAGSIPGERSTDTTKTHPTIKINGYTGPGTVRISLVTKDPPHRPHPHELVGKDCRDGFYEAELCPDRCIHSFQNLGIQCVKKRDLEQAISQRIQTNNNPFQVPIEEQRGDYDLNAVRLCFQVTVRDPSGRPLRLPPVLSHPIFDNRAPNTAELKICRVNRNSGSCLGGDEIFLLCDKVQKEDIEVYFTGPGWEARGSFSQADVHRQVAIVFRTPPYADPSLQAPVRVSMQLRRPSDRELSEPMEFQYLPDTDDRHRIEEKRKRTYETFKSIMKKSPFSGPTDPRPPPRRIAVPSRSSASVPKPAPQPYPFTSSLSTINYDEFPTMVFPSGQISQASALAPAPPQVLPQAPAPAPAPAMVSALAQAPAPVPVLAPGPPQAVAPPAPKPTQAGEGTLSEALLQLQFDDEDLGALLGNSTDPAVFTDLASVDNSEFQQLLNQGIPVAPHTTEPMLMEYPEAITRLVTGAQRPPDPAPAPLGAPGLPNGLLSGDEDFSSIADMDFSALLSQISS

| Structure (SMILES) | IC50 (SK-BR-3) | IC50 (MDA-MB-231 [1]) | Activity (SUM-159-PT [3]) | IC50 (KG-1a) | IC50 (SUM-159-PT [5]) | IC50 (MCF7 [6]) | inhibition (MCF7 [7]) | Activity (MDA-MB-231 [8]) | inhibition (SUM-159-PT [11]) | survival at 24 h, 250 µM [15] | Activity (SUM-159-PT [16]) | Activity (SUM-159-PT [18]) | further results |
| --- | --- | --- | --- | --- | --- | --- | --- | --- | --- | --- | --- | --- | --- |
| CN1CCN(CCCN2c3ccccc3Sc3ccc(C(F)(F)F)cc32)CC1 [TRIFLUOPERAZINE] | 15.9 µM | 21.6 µM | 12 | 4.58 µM | 17 µM | 11.3 µM |  |  |  |  |  |  | inhibition at 2.83 µM (MCF7 [2]): 63.8%; inhibition (MDA-MB-231 [4]): Active |
| O=C(CCC(=O)N1CCN(CCCN2c3ccccc3Sc3ccccc32)CC1)OCCCCOc1no[n+]([O-])c1S(=O)(=O)c1ccccc1 | 13.6 µM | 11.2 µM | 1 | 1.63 µM | 1.63 µM | 2.94 µM | Dose-dependent effect | Dose-dependent effect | Dose-dependent effect | 64.5% | 19 | 8 | Ratio IC50 (SUM-159-PT [9]): 6 - 15; inhibition at 0.37 µM (MCF7 [10]): 33.1%; inhibition [12]: Dose-dependent effect; Ratio IC50 (MCF7 [13]): 4 - 13; inhibition at 0.74 µM (MCF7 [14]): 11.6%; inhibition (MDA-MB-231 [17]): Dose-dependent effect; inhibition at 0.18 µM (MCF7 [19]): 64.4% |
| O=C(CCC(=O)N1CCN(CCCN2c3ccccc3Sc3ccccc32)CC1)OCCOc1no[n+]([O-])c1S(=O)(=O)c1ccccc1 | 2.22 µM | 1.6 µM | 1 | 1.78 µM | 1.78 µM | 3.23 µM | Dose-dependent effect | Dose-dependent effect | Dose-dependent effect | 51.6% | 8 | 2 | inhibition at 0.2 µM (MCF7 [20]): 10.3%; inhibition (MDA-MB-231 [21]): Active; inhibition [22]: Active |
